In US8796336B2, “Methoxypolyethylene glycol chelate and uses thereof” (Eastern Virginia Medical School, priority 2006, dated 2014):

Legend:
[1] = tested on: retinal ganglion cells (RGC); test: NMDA retinal damage model, scotopic electroretinogram A and B waves; format: in vivo, rats; conditions: for A wave, % Baseline, Intravitreal / B wave, % Baseline, Intravitreal: intravitreal 2 mM co-administered with 2 ul 10 mM NMDA; for A wave, % Baseline, Topical / B wave, % Baseline, Topical: topical 100 mM, 20 μl 3 times per day, 5 days prior and 3 days post-NMDA
Experimental: Changes in electroretinogram (ERG) A and B waves have been used as indicators of RGC damage. To examine RGC neuroprotection, 2 ul intravitreal injections of 10 mM NMDA, sufficient to change ERG A and B-waves within 2 weeks, were challenged with co-administered intravitreal (2 mM) or topical 100 mM MPDTE, MPSEDE and amifostine in normal rats unilaterally. For topical administration, rats were pretreated for 5 days prior and 3 days post-NMDA administration with the agents at a frequency of 3 times per day with 20 μl agent. Scotopic ERG changes were measured in normal rats. Rats were dark adapted for at least 4 hrs. Eyes were dilated with atropine after which proparacaine and methylcellulose gel were applied topically. Custom made AgCl electrodes (64-1317, Warner Instruments, Hamden, Conn.) were placed on the apex of the cornea. Stimuli consisted of 10-microsec flashes of unattenuated white light generated by Ganzfield bowl photo stimulator (Grass Instruments, PS22, Quincy, Mass.). Data from each eye was recorded separately with a driver amplifier (Grass Instruments, Model 7DAF Polygraph, Quincy, Mass.). Data was acquired digitally via DASYLab (Bedford, N.H.). The contralateral normal eye served as an age matched negative control, e.g. response in a normal, undamaged eye. Differences in amplitude of the A-wave and B-waves between the treated eye and the contralateral eye and between treatment groups were calculated.

H9C2 cells = test: Doxorubicin chemotoxicity on H9C2 cells, intracellular calcium by fluo-3 AM; format: cell-based, rat; conditions: 10 min exposure to 50 μM doxorubicin, cells without MPDTE pretreatment
Experimental: H9C2 cells, which are used as models for rat striated muscle, were cultured using techniques described previously (Lattanzio, F A Jr., Tiangco, D., Osgood, C., Beebe, S., Kerry, J. and Hargrave B Y. Cocaine increases intracellular calcium and reactive oxygen species, depolarizes mitochondria, and activates genes associated with heart failure and remodeling. Cardiovascular Toxiology (20050 5: 377-389). Fluorescent calcium indicator and ROS indicator were used to determine if the reported increase in intracellular calcium and ROS activity occurred and whether these changes were reduced in the presence of 2 mM MPSEDE or MPDTE. Cells were measured using a Zeiss 510 fluorescent confocal microscope as described in Lattanzio et al, 2005.
H9C2 cells, a rat myocyte model, were cultured in MEM until confluent using techniques described in Lattanzio et al, 2005. The cells were treated with 5 μM fluo-3 AM, a fluorescent calcium indicator, for 30 min at 37 C, washed and then exposed to 50 μM doxorubicin (a supermaximal toxic dose), in the presence or absence of 30 min pretreatment with 2 mM MPDTE. Doxorubicin increases intracellular calcium in cardiac cells by disrupting calcium homeostasis through the production of free radical damage and subsequent membrane damage. […] Protection may have occurred due to a combination of free radical scavenging and calcium chelation.

[2] = tested on: intraocular pressure (IOP); test: Topical application for IOP measurements on rat surgical glaucoma (ocular hypertensive) model; format: in vivo, male SpragueDawley rats
Experimental: Ocular hypertension was induced in 9 male SpragueDawley rats, weighing between 400 to 500 grams. Under general anesthesia with acepromazine maleate (12 mg/Kg) and ketamine (80 mg/Kg), IP, and topical proparacaine (0.5%), dissection of the conjunctiva was made with fine cuts. To reduce the stimulus for revascularization or neovascularization, dissection of the right eye was limited to the area immediately surrounding the vortex veins. Three of four vortex veins were exposed and ligated using 9.0 nylon sutures. Criterion for inclusion into the study was an intraocular pressure (IOP) increase of 5 mm Hg or more when compared to […] baseline IOP. Within 6 weeks, the IOP of all the operated eyes increased at least 5 mm Hg compared to baseline. National Institutes of Health Guidelines and Association for Research in Vision and Ophthalmology statement for the Use and Care of Animals were followed in this study.
Prior to initiation of treatment, baseline IOP was obtained in glaucoma rat models. IOP was measured via a specially modified Goldmann applanation tonometer (HAAG-STREIT, Bern, Switzerland) under sedation. Measurements are averages of two consecutive readings and were made at the same time of day and by the same observers.
Rats were treated topically with 20 μl of MP compounds (0.3-100 mM; n=3-6) on the operated eyes. […]

Row | Compound | A wave, % Baseline, Intravitreal [1] | B wave, % Baseline, Intravitreal [1] | A wave, % Baseline, Topical [1] | B wave, % Baseline, Topical [1] | increase of intracellular calcium (H9C2 cells) | IOP reduction ([2]; single topical dose of 10-100 mM, FIG. 5-7) | reduction of NMDA damage ([1]; both intravitreal and topical administration (Table 1)) | reduction of NMDA damage ([1]; co-administration with NMDA, at the dose tested) | IOP reduction of the components ([2]; MP or DTE administered alone or together, not as great as with MPDTE, FIG. 10)
1 | CN[C@H](CC(=O)O)C(=O)O [NMDA, N-methyl-D-aspartate] | 51.2 % Baseline | 68.4 % Baseline | 51.2 % Baseline | 68.4 % Baseline |  |  |  |  | 
2 | NCCCNCCSP(=O)(O)O [amifostine, S-2-[3-aminopropylamino]ethylphosphorothioate] | 94.2 % Baseline | 83.3 % Baseline | 69.4 % Baseline | 99.3 % Baseline |  |  |  |  | 
3 | COc1cccc2c1C(=O)c1c(O)c3c(c(O)c1C2=O)C[C@@](O)(C(=O)CO)C[C@@H]3O[C@H]1C[C@H](N)[C@H](O)[C@H](C)O1 [doxorubicin] |  |  |  |  | 59.4% |  |  |  | 
4 | methoxypolyethlene glycol thioester of ethylenediaminetetraacetic acid methyl triester [MPSEDE] | 76.2 % Baseline | 69.6 % Baseline | 95.9 % Baseline | 93.7 % Baseline |  | significantly reduced IOP | significantly reduced NMDA damage | trend to reduce NMDA damage, but this was not significant | 
5 | polyethylene glycol monomethyl ether [MP] |  |  |  |  |  |  |  |  | reduction in IOP
